Where a name gives a salt, the structure may show the parent alone.
Biological target: T1, human P2X3 receptor (Homo sapiens, UniProt P56373)
T1 sequence (P56373 1-397): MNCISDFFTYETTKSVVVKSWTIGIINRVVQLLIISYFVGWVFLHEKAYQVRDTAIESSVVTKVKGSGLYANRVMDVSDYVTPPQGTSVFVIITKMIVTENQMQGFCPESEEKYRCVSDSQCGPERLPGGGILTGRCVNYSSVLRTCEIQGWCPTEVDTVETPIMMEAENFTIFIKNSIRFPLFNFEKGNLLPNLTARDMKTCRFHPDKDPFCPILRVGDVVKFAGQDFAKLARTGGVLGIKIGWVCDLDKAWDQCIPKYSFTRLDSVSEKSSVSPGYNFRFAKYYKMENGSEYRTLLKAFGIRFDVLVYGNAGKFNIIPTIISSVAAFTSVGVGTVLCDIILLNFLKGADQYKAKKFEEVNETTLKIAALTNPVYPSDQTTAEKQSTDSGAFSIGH
Experiment: Intracellular calcium measurement to assess antagonist activity at human P2X3 receptors (hP2X3 CHO), photina luminescence
Type: cell-based
Parameters: expressed in transfected cells; host or cells: Chinese hamster ovary (CHO) cells
Conditions: column 2), CHO cells, agonist α,β-methylene-ATP at EC50
Description: 2) Intracellular Calcium Measurement to Assess Antagonist Activity at Human P2X3 Receptors (hP2X3 CHO)
The determination of antagonistic activity at the P2X3 receptor of the compounds of the invention was performed by use of a recombinant cell line. This cell line derives originally from the Chinese hamster ovary (CHO) cell line (Tjio J. H.; Puck T. T., 1958, J. Exp. Med. 108: 259-271). The cell line is stably transfected with the human P2X3 receptor and a calcium-sensitive photoprotein, mitochondrial photina, which, after reconstitution with the cofactor coelenterazine, emits light in dependence of calcium binding [Bovolenta S, Foti M, Lohmer S, Corazza S., J Biomol Screen. 2007 August; 12(5):694-704]. The strength of the photina luminescence signal corresponds to the level of receptor activation upon agonist binding. An inhibitor would decrease the signal depending on its potency and concentration. Bioluminescence was detected using a suitable luminometer [Milligan G, Marshall F, Rees S, Trends in Pharmacological Sciences 17,235-237 (1996)].
On the day before the assay, the cells were plated out in culture medium (DMEM/F12 (PAN, P04-41451), 10% FCS) in 384-well microtiter plates and kept in a cell incubator (96% humidity, 5% v/v CO2, […]). On the day of the assay medium was replaced by 2 mM Ca-tyrode buffer containing 5 μg/ml coelenterazine. Plates were incubated for 3 hours at 37° C. (96% humidity, 5% v/v CO2). […] The resulting light signal was measured immediately in the luminometer.

CCOC(=O)c1cc2n(CC(=O)Nc3ccc(F)cn3)c3c(c(=O)n2n1)CN(C1CCOCC1)C3=O [Example 122]
IC50: 94 nM

CC(C)N1Cc2c(n(CC(=O)Nc3ccc(F)cn3)c3cc(C(=O)Nc4cccc(F)c4)nn3c2=O)C1=O [Example 206]
IC50: 47 nM

CC(C)N1Cc2c(n(CC(=O)Nc3ccc(F)cn3)c3cc(C(=O)Nc4ncccn4)nn3c2=O)C1=O [Example 210]
IC50: 28 nM

CC(C)N1Cc2c(n(CC(=O)Nc3ccc(F)cn3)c3cc(C(=O)Nc4ccon4)nn3c2=O)C1=O [Example 211]
IC50: 26 nM

CC(C)N1Cc2c(n(CC(=O)Nc3ccc(F)cn3)c3cc(Cc4ccccn4)nn3c2=O)C1=O [Example 133]
IC50: 22 nM

CCc1cc2n(CC(=O)Nc3ccc(F)cn3)c3c(c(=O)n2n1)CN(CC)C3=O [Example 126]
IC50: 57 nM

CCc1cc2n(CC(=O)Nc3ccc(F)cn3)c3c(c(=O)n2n1)CN(CC(=O)N(C)C1CC1)C3=O [Example 294]
IC50: 247 nM

O=C(Cn1c2c(c(=O)n3nc(-c4ccncc4)cc13)CN(Cc1ccccn1)C2=O)Nc1ccc(F)cn1 [Example 130]
IC50: 14 nM

CCc1cc2n(CC(=O)Nc3ccc(F)cn3)c3c(c(=O)n2n1)CN(C1CNC1)C3=O [Example 243]
IC50: 230 nM

CCc1cc2n(CC(=O)Nc3ccc(F)cn3)c3c(c(=O)n2n1)CN(C)C3=O [Example 127]
IC50: 43 nM

COC[C@H](C)N1Cc2c(n(CC(=O)Nc3ccc(F)cn3)c3cc(C(=O)Nc4ccon4)nn3c2=O)C1=O [Example 215]
IC50: 63 nM

CCc1cc2n(CC(=O)Nc3ccc(F)cn3)c3c(c(=O)n2n1)CN(CC1CNC1)C3=O [Example 242]
IC50: 585 nM

COc1ccccc1NC(=O)c1cc2n(CC(=O)Nc3ccc(F)cn3)c3c(c(=O)n2n1)CN(C(C)C)C3=O [Example 202]
IC50: 135 nM

CC(C)N1Cc2c(n(CC(=O)Nc3ccc(F)cn3)c3cc(C4CN(C(=O)OC(C)(C)C)C4)nn3c2=O)C1=O [Example 230, tert-butyl 3-[4-{2-[(5-fluoropyridin-2-yl)amino]-2-oxoethyl}-5,8-dioxo-6-(propan-2-yl)-5,6,7,8-tetrahydro-4H-pyrazolo[1,5-a]pyrrolo[3,4-d]pyrimidin-2-yl]azetidine-1-carboxylate]
IC50: 115 nM

CCc1cc2n(CC(=O)Nc3ccc(F)cn3)c3c(c(=O)n2n1)CN(CC(=O)N(C)CC1CC1)C3=O [Example 293]
IC50: 240 nM

CCc1cc2n(CC(=O)Nc3ccc(F)cn3)c3c(c(=O)n2n1)CN(C1CN(S(C)(=O)=O)C1)C3=O [Example 273]
IC50: 565 nM

CCc1cc2n(CC(=O)Nc3ccc(F)cn3)c3c(c(=O)n2n1)CN(C(C)CO)C3=O (racemic) [Example 137, 2-{2-ethyl-6-[(±)-1-hydroxypropan-2-yl]-5,8-dioxo-5,6,7,8-tetrahydro-4H-pyrazolo[1,5-a]pyrrolo[3,4-d]pyrimidin-4-yl}-N-(5-fluoropyridin-2-yl)acetamide]
IC50: 155 nM

CCc1cc2n(CC(=O)Nc3ccc(F)cn3)c3c(c(=O)n2n1)CN(C1CCNCC1)C3=O [Example 237]
IC50: 1950 nM

CC(C)N1Cc2c(n(CC(=O)Nc3ccc(F)cn3)c3cc(N)nn3c2=O)C1=O [Example 241, 2-[2-amino-5,8-dioxo-6-(propan-2-yl)-5,6,7,8-tetrahydro-4H-pyrazolo[1,5-a]pyrrolo[3,4-d]pyrimidin-4-yl]-N-(5-fluoropyridin-2-yl)acetamide hydrochloride (1:1)]
IC50: 625 nM

CC(C)N1Cc2c(n(CC(=O)Nc3ccc(F)cn3)c3cc(C4CN(C)C4)nn3c2=O)C1=O [Example 262]
IC50: 127 nM

O=C(Cn1c2c(c(=O)n3nc(-c4ccncc4)cc13)CN(Cc1cccnc1)C2=O)Nc1ccc(F)cn1 [Example 131]
IC50: 14 nM

CNc1cc2n(CC(=O)Nc3ccc(F)cn3)c3c(c(=O)n2n1)CN(C(C)C)C3=O [Example 174]
IC50: 59 nM

Cc1cnc(-c2cc3n(CC(=O)Nc4ccc(F)cn4)c4c(c(=O)n3n2)CN(C(C)C)C4=O)c(C)c1 [Example 166, 2-[2-(3,5-dimethylpyridin-2-yl)-5,8-dioxo-6-(propan-2-yl)-5,6,7,8-tetrahydro-4H-pyrazolo[1,5-a]pyrrolo[3,4-d]pyrimidin-4-yl]-N-(5-fluoropyridin-2-yl)acetamide]
IC50: 5 nM

CCc1cc2n(CC(=O)Nc3ccc(F)cn3)c3c(c(=O)n2n1)CN(CC1CCC1)C3=O [Example 113]
IC50: 113 nM

CC(C)N1Cc2c(n(CC(=O)Nc3ccc(F)cn3)c3cc(CN4CCCC4=O)nn3c2=O)C1=O [Example 232, 2-{5,8-dioxo-2-[(2-oxopyrrolidin-1-yl)methyl]-6-(propan-2-yl)-5,6,7,8-tetrahydro-4H-pyrazolo[1,5-a]pyrrolo[3,4-d]pyrimidin-4-yl}-N-(5-fluoropyridin-2-yl)acetamide]
IC50: 53 nM

COC[C@H](C)N1Cc2c(n(CC(=O)Nc3ccc(F)cn3)c3cc(C(=O)Nc4ccccc4F)nn3c2=O)C1=O [Example 221]
IC50: 30 nM

CC(C)N1Cc2c(n(CC(=O)Nc3ccc(F)cn3)c3cc([C@@H]4CCOC4)nn3c2=O)C1=O (single isomer, unassigned) [Example 280, 2-{5,8-dioxo-2-[oxolan-3-yl]-6-(propan-2-yl)-5,6,7,8-tetrahydro-4H-pyrazolo[1,5-a]pyrrolo[3,4-d]pyrimidin-4-yl}-N-(5-fluoropyridin-2-yl)acetamide]
IC50: 57 nM

CCc1cc2n(CC(=O)Nc3ccc(F)cn3)c3c(c(=O)n2n1)CN(CC1CN(C(=O)OC(C)(C)C)C1)C3=O [Example 115]
IC50: 205 nM

Cc1cccnc1-c1cc2n(CC(=O)Nc3ccc(F)cn3)c3c(c(=O)n2n1)CN(C(C)C)C3=O [Example 163]
IC50: 398 nM

COC[C@H](C)N1Cc2c(n(CC(=O)Nc3ccc(F)cn3)c3cc(C#N)nn3c2=O)C1=O [Example 148]
IC50: 225 nM

CC(C)N1Cc2c(n(CC(=O)Nc3ccc(F)cn3)c3cc(C(=O)NCCCO)nn3c2=O)C1=O [Example 224]
IC50: 145 nM

CNc1cc2n(CC(=O)Nc3ccc(F)cn3)c3c(c(=O)n2n1)CN([C@@H](C)COC)C3=O [Example 179]
IC50: 120 nM

CCc1cc2n(CC(=O)Nc3ccc(F)cn3)c3c(c(=O)n2n1)CN(C1CCN(C2CCC2)C1)C3=O (stereo not shown) [Example 254]
IC50: 1150 nM

CC(C)N1Cc2c(n(CC(=O)Nc3ccc(F)cn3)c3cc(C(=O)Nc4ccccc4Cl)nn3c2=O)C1=O [Example 203]
IC50: 25 nM

CCc1cc2n(CC(=O)Nc3ccc(F)cn3)c3c(c(=O)n2n1)CN(C(C)(C)CO)C3=O [Example 136, 2-[2-ethyl-6-(1-hydroxy-2-methylpropan-2-yl)-5,8-dioxo-5,6,7,8-tetrahydro-4H-pyrazolo[1,5-a]pyrrolo[3,4-d]pyrimidin-4-yl]-N-(5-fluoropyridin-2-yl)acetamide]
IC50: 56 nM

CCc1cc2n(CC(=O)Nc3ccc(F)cn3)c3c(c(=O)n2n1)CN(CC(=O)N1CCOCC1)C3=O [Example 291, 2-{2-ethyl-6-[2-(morpholin-4-yl)-2-oxoethyl]-5,8-dioxo-5,6,7,8-tetrahydro-4H-pyrazolo[1,5-a]pyrrolo[3,4-d]pyrimidin-4-yl}-N-(5-fluoropyridin-2-yl)acetamide]
IC50: 415 nM

CCc1cc2n(CC(=O)Nc3ccc(F)cn3)c3c(c(=O)n2n1)CN(C1CN(C(=O)OC(C)(C)C)C1)C3=O [Example 116]
IC50: 585 nM

CC(C)N1Cc2c(n(CC(=O)Nc3ccc(F)cn3)c3cc(C(=O)Nc4cccnn4)nn3c2=O)C1=O [Example 212]
IC50: 22 nM

Cc1ccccc1NC(=O)c1cc2n(CC(=O)Nc3ccc(F)cn3)c3c(c(=O)n2n1)CN(C(C)C)C3=O [Example 204]
IC50: 36 nM

CCc1cc2n(CC(=O)Nc3ccc(F)cn3)c3c(c(=O)n2n1)CN(C1CCCOC1)C3=O (stereo not shown) [Example 118]
IC50: 131 nM

N#Cc1cc2n(CC(=O)Nc3ccc(F)cn3)c3c(c(=O)n2n1)CN(CCN1CCOCC1)C3=O [Example 147]
IC50: 225 nM

O=C(Cn1c2c(c(=O)n3nc(Br)cc13)CN(CCN1CCOCC1)C2=O)Nc1ccc(F)cn1 [Example 111]
IC50: 225 nM

CCc1cc2n(CC(=O)Nc3ccc(F)cn3)c3c(c(=O)n2n1)CN(C1CCN(C)CC1)C3=O [Example 87]
IC50: 1650 nM

CC(C)N1Cc2c(n(CC(=O)Nc3ccc(F)cn3)c3cc(C(=O)Nc4ncco4)nn3c2=O)C1=O [Example 209]
IC50: 123 nM

CCc1cc2n(CC(=O)Nc3ccc(F)cn3)c3c(c(=O)n2n1)CN(CC1CN(C(C)=O)C1)C3=O [Example 268]
IC50: 580 nM

O=C(Cn1c2c(c(=O)n3nc(C(=O)Nc4ccccc4F)cc13)CN(C1CCOCC1)C2=O)Nc1ccc(F)cn1 [Example 219]
IC50: 180 nM
